The text below walks through data of patent publication US6506901B2, “Substituted 2-(S)-hydroxy-3-(piperidin-4-yl-methylamino)-propyl ethers and substituted 2-aryl-2-(R)-hydroxy-1-(piperidin-4-yl-methyl)-ethylamine β-3 adrenergic receptor agonists” (Wyeth, priority 2000, dated 2003).

Usually EC50 stands for the concentration that produces a half-maximal response. Lower therefore signals greater potency.

The experiment deals with T1, human β3 receptors (Homo sapiens, UniProt P13945).
T1 construct: Full length β3 AR clones (402 amino acids) containing the last 6 amino acids of hβ3—AR; expressed in transfected cells; host or cells: CHO cells
In words: cAMP response (SPA) in CHO cells expressing cloned human β3 adrenergic receptor. It is filed as cell-based. As to conditions: for EC50: CHO cells expressing human β3 receptor, cAMP, 30 min incubation, 10^−9 M to 10^−5 M; for IA(β3): maximal response compared to the maximal response of isoproterenol at 10^−5 M. As to the method: Binding to the receptors was measured in Chinese Hamster ovary (CHO) cells that were transfected with adrenergic receptors.
Cloning of Human β3-AR Genomic DNA: cDNA was constructed by ligating four polymerase chain reaction (PCR) products using the following primers: an ATG-NarI fragment, sense primer 5′-[…]3′ and anti-sense primer 5′ […]3′; a NarI-AccI fragment, 5′ […]3′ as sense and 5′ […]3′ as anti-sense primer; an AccIi-StyI fragment, sense primer 5′ […]3′ and anti-sense primer 5′ […]3′ and a StyI-TAG fragment, with sense primer 5′ […]3′ and anti-sense primer 5′ […]3′. The corresponding primer sequences are described in Mantzoros, C. […] The four fragments are ligated into a pUC 18 plasmid (Gibco-BRL) and sequenced.
CHO cells were grown in 24-well tissue culture plates in Dulbecco's Modified Eagle Media with 10% fetal bovine serum, MEM non-essential amino acids, Penicillin-Streptompycin and Geneticin. […] Isoproterenol (10^−5 M) was used as an internal standard for comparison of activity. Cells were incubated at 37° C. on a rocker for 30 min with the β3 cells and 15 min for β1 and β2 cells. Incubation was stopped with the addition of 0.2N HCl and neutralized with 2.5N NaOH. The plates, containing the cells and neutralized media, were stored at −20 degrees celsius until ready to test for cAMP using the SPA test kit (Amersham).
Data Analysis and Results: Data collected from the SPA test procedure were analyzed as per cent of the maximal isoproterenol response at 10^−5 M. Activity curves were plotted using the SAS statistical and graphics software.

T1 sequence (P13945 whole entry): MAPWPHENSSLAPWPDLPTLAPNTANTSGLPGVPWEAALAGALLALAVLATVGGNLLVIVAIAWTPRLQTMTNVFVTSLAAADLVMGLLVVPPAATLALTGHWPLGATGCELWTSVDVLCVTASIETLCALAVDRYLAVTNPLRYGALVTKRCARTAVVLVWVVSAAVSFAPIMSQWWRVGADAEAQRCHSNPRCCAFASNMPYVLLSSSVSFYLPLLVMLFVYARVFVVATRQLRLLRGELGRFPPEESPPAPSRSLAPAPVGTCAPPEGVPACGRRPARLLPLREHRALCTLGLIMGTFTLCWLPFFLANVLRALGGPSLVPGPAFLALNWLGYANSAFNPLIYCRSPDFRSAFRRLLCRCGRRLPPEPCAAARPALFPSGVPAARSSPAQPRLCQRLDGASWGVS

With `CN(Cc1c(F)cccc1F)C(=O)Nc1ccc(S(=O)(=O)N2CCC(CNC[C@H](O)c3ccc(O)c(NS(C)(=O)=O)c3)CC2)cc1` [Example 85, N-(5-{2-[(1-{4-[3-(2,6-Difluoro-benzyl)-3-methyl-ureido]-benzenesulfonyl}-piperidin-4-ylmethyl)-amino]-1-hydroxy-ethyl}-2-hydroxy-phenyl)-methanesulfonamide], the EC50 is 29 nM and the “IA(β3)” value was 1.2.

As for `O=C(NC1CCCCC1)N1CCC(CNC[C@H](O)COc2ccc(O)cc2)CC1` [Example 57, 4-{[(2S)-2-Hydroxy-3-(4-hydroxy-phenoxy)-propylamino]-methyl}-piperidine-1-carboxylic Acid Cyclohexylamide], the EC50 is 3190 nM and the “IA(β3)” value is 0.46.

Turning to `O=[N+]([O-])c1ccc(S(=O)(=O)N2CCC(CNC[C@H](O)COc3ccc(O)cc3)CC2)cc1` [Example 45, 4-((2S)-2-Hydroxy-3-{[1-(4-nitro-benzenesulfonyl)-piperidin-4-ylmethyl]-amino}-propoxy)-phenol], the EC50 was 610 nM and the “IA(β3)” value was 1.

For `CN(Cc1cc(F)ccc1F)C(=O)Nc1ccc(S(=O)(=O)N2CCC(CNC[C@H](O)c3ccc(O)c(NS(C)(=O)=O)c3)CC2)cc1` [Example 87, N-[5-[(R)-2-[[[1-[[4-[[[[(2,5-Difluorophenyl)methyl]-methylamino]-carbonyl]amino]-phenyl]sulfonyl]-4-piperidinyl]methyl]amino]-1-hydroxyethyl]-2-hydroxyphenyl]-methanesulfonamide], the EC50 was found to be 7 nM and the “IA(β3)” value is on record as 1.

As for `COC(=O)COc1ccc(CNC(=O)Nc2ccc(S(=O)(=O)N3CCC(CNC[C@H](O)c4ccc(O)c(NS(C)(=O)=O)c4)CC3)cc2)c(F)c1` [Example 88, [3-Fluoro-4-[[[[[4-[[4-[[[(R)-2-hydroxy-2-[4-hydroxy-3-[(methylsulfonyl)amino]-phenyl]ethyl]amino]-methyl]-1-piperidinyl]sulfonyl]phenyl]amino]-carbonyl]-amino]methyl]phenoxy]acetic Acid, Methyl Ester], the EC50 turned out to be 22 nM and the “IA(β3)” value stood at 1.

Turning to `CC(C)N(Cc1cc(F)ccc1F)C(=O)Nc1ccc(S(=O)(=O)N2CCC(CNC[C@H](O)c3ccc(O)c(NS(C)(=O)=O)c3)CC2)cc1` [Example 86], the half-maximal effective concentration (EC50) came out at 3 nM and the “IA(β3)” value turned out to be 0.78.

On to `Oc1ccc2[nH]c3ccccc3c2c1OC[C@@H](O)CNCC1CCN(CCC(F)(F)F)CC1` [Example 15, 4-((2S)-2-Hydroxy-3-{[1-(3,3,3-trifluoro-propyl)-piperidin-4-ylmethyl]-amino}-propoxy)-9H-carbazol-3-ol], for which the concentration giving a half-maximal response (EC50) was found to be 12500 nM and the “IA(β3)” value is recorded as 0.52.

As to `O=c1[nH]c2cccc(OC[C@@H](O)CNCC3CCN(CCC(F)(F)F)CC3)c2[nH]1` [Example 22, 4-((2S)-2-Hydroxy-3-{[1-(3,3,3-trifluoro-propyl)-piperidin-4-ylmethyl]-amino}-propoxy)-1,3-dihydro-benzoimidazol-2-one], the EC50 was 1210 nM and the “IA(β3)” value is listed as 0.53.

With `CS(=O)(=O)Nc1cc([C@@H](O)CNCC2CCN(S(=O)(=O)c3ccc(NC(=O)NCCc4cc(F)ccc4F)cc3)CC2)ccc1O` [Example 81, N-{5-[(1R)-2-({[1-({4-[({[2-(2,5-difluorophenyl)ethyl]amino]-carbonyl)amino}-phenyl}sulfonyl)piperidin-4-yl]methyl}amino)-1-hydroxyethyl]-2-hydroxyphenyl}-methanesulfonamide], it took 5 nM to reach a half-maximal effect (EC50) and the “IA(β3)” value was determined as 1.1.

In the case of `CS(=O)(=O)Nc1cc([C@@H](O)CNCC2CCN(S(=O)(=O)c3ccc(NC(=O)Nc4ccccn4)cc3)CC2)ccc1O` [Example 67, N-{2-Hydroxy-5-[(1R)-1-hydroxy-2-({1-[4-(3-pyridin-2-yl-ureido)-benzenesulfonyl]-piperidin-4-ylmethyl}-amino)-ethyl]-phenyl}-methanesulfonamide], the EC50 worked out at 20 nM and the “IA(β3)” value is recorded as 1.2.
